Measurements: patent publication US12060368B2, “Selenophenochromene hydroxamic acids, preparation and use as angiogenesis inhibitors” (Latvian Institute of Organic Synthesis, priority 2018, dated 2024)
Where a name gives a salt, the structure may show the parent alone.

Legend:
[1] = target: T1, MMP 1 (Homo sapiens, UniProt P03956); assay: MMP Inhibitor Fluorimetric Profiling kit, MMP 1; format: biochemical; settings: for IC50: read-out: MMP 1 inhibition IC50; for inhibition at 20 µM: test compound 20 μM
T1 construct: recombinant human MMP-1-10, 12, 13 and 14 catalytic domains; purchased Biornol, USA
T1 sequence (P03956 98-276 limits assumed): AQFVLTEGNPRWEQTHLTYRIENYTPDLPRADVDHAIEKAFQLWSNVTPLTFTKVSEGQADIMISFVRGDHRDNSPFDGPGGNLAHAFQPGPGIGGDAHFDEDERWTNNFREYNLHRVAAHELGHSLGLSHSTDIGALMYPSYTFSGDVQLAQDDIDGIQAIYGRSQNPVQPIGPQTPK
Experimental: (§1) Inhibition of matrix metalloproteinase enzymes by synthesized selenopheno[3,2-h]chromenes I-1-I-4 was detected on MMP Inhibitor Fluorimetric Profiling kit using NNGH (N-isobutyl-N-4-methoxyphenylsulfonyl)glycyl-hydroxamic acid) as a standard.
(§2) MMP assay: Inhibitors of matrix metalloproteinase enzymes were detected with the use of MMP Inhibitor Fluorimetric Profiling kit (Biornol, USA) accordingly to manufacturer's instructions. MMP activity assays were performed in 96-well plates using the recombinant human MMP-1-10, 12, 13 and 14 catalytic domains and OmniMMP™ fluorogenic substrate SEQ ID No 1: Mca-Pro-Leu-Gly-Leu-Dpa-Ala-Arg-NH2. The test compounds (20 μM) were dissolved in DMSO. The compound NNGH (N-isobutyl-N-(4-methoxyphenylsulfonyl)-glycylhydroxamic acid) was used as a prototypic control inhibitor. The rate of substrate hydrolysis was determined by fluorescence intensity measuring for 10 minutes at 37° C. temperature using a fluorescence plate reader (Tecan infinite M1000, Austria) with excitation at 328 nm and emission at 420 nm. Data analysis was performed using program Graph Pad Prism® 3.0.

[2] = target: T2, MMP 2 (Homo sapiens, UniProt P08253); assay: MMP Inhibitor Fluorimetric Profiling kit, MMP 2; format: biochemical; settings: for IC50: read-out: MMP 2 inhibition IC50; for inhibition at 20 µM: test compound 20 μM
T2 construct: recombinant human MMP-1-10, 12, 13 and 14 catalytic domains; purchased Biornol, USA
Experimental: as §1, §2

[3] = target: T3, MMP 3 (Homo sapiens, UniProt P08254); assay: MMP Inhibitor Fluorimetric Profiling kit, MMP 3; format: biochemical; settings: for IC50: ne = no effect, read-out: MMP 3 inhibition IC50; for inhibition at 20 µM: test compound 20 μM
T3 construct: recombinant human MMP-1-10, 12, 13 and 14 catalytic domains; purchased Biornol, USA
Experimental: as §1, §2

[4] = target: T4, MMP 7 (Homo sapiens, UniProt P09237); assay: MMP Inhibitor Fluorimetric Profiling kit, MMP 7; format: biochemical; settings: for inhibition at 20 µM: test compound 20 μM
T4 construct: recombinant human MMP-1-10, 12, 13 and 14 catalytic domains; purchased Biornol, USA
T4 sequence (P09237 95-267): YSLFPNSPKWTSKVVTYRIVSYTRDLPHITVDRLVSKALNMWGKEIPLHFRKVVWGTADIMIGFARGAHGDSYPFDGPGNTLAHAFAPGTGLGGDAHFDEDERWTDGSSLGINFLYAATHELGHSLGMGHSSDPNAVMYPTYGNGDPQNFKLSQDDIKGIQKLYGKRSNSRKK
Experimental: as §1, §2

[5] = target: T5, MMP 8 (Homo sapiens, UniProt P22894); assay: MMP Inhibitor Fluorimetric Profiling kit, MMP 8; format: biochemical; settings: for IC50: read-out: MMP 8 inhibition IC50; for inhibition at 20 µM: test compound 20 μM
T5 construct: recombinant human MMP-1-10, 12, 13 and 14 catalytic domains; purchased Biornol, USA
Experimental: as §1, §2

[6] = target: T6, MMP 9 (Homo sapiens, UniProt P14780); assay: MMP Inhibitor Fluorimetric Profiling kit, MMP 9; format: biochemical; settings: for IC50: read-out: MMP 9 inhibition IC50; for inhibition at 20 µM: test compound 20 μM
T6 construct: recombinant human MMP-1-10, 12, 13 and 14 catalytic domains; purchased Biornol, USA
Experimental: as §1, §2

[7] = target: T7, MMP 10 (stromelysin 2) (Homo sapiens, UniProt P09238); assay: MMP Inhibitor Fluorimetric Profiling kit, MMP 10; format: biochemical; settings: for IC50: read-out: MMP 10 inhibition IC50; for inhibition at 20 µM: test compound 20 μM
T7 construct: recombinant human MMP-1-10, 12, 13 and 14 catalytic domains; purchased Biornol, USA
Experimental: as §1, §2

[8] = target: T8, MMP 12 (Homo sapiens, UniProt P39900); assay: MMP Inhibitor Fluorimetric Profiling kit, MMP 12; format: biochemical; settings: for MMP 12 inhibition IC50: ne = no effect; for inhibition at 20 µM: test compound 20 μM
T8 construct: recombinant human MMP-1-10, 12, 13 and 14 catalytic domains; purchased Biornol, USA
Experimental: as §1, §2

[9] = target: T9, MMP 13 (Homo sapiens, UniProt P45452); assay: MMP Inhibitor Fluorimetric Profiling kit, MMP 13; format: biochemical; settings: for IC50 / MMP 13 inhibition IC50: ne = no effect; for IC50: read-out: MMP 13 inhibition IC50; for inhibition at 20 µM: test compound 20 μM
T9 construct: recombinant human MMP-1-10, 12, 13 and 14 catalytic domains; purchased Biornol, USA
Experimental: as §1, §2

[10] = target: T10, MMP 14 (Homo sapiens, UniProt P50281); assay: MMP Inhibitor Fluorimetric Profiling kit, MMP 14; format: biochemical; settings: for IC50: read-out: MMP 14 inhibition IC50; for inhibition at 20 µM: test compound 20 μM
T10 construct: recombinant human MMP-1-10, 12, 13 and 14 catalytic domains; purchased Biornol, USA
Experimental: as §1, §2

T6 sequence (P14780 107-444 limits assumed): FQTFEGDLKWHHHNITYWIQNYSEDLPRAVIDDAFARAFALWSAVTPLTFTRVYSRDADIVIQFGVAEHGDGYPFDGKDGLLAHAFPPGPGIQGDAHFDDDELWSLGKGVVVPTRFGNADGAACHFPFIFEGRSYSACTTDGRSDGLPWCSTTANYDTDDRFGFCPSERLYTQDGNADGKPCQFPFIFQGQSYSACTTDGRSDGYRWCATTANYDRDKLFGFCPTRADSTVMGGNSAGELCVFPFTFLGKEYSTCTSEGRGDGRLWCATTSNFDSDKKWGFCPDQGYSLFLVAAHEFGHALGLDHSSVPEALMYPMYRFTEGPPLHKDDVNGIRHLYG
T5 sequence (P22894 100-262 limits assumed): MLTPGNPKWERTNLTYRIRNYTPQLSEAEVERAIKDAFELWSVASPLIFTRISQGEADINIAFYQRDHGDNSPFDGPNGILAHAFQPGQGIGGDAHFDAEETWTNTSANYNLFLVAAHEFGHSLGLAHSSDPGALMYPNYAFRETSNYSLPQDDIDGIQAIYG
T7 sequence (P09238 99-263 limits assumed): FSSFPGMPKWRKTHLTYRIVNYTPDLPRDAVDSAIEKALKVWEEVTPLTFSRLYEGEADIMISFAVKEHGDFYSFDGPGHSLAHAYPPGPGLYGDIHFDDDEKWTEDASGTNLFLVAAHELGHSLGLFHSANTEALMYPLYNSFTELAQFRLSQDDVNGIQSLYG
T3 sequence (P08254 100-272 limits assumed): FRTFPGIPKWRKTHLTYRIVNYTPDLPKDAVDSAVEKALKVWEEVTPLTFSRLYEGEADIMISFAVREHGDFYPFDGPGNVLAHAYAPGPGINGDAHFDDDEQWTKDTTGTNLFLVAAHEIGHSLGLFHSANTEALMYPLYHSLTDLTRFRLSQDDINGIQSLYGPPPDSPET
T8 sequence (P39900 106-263 limits assumed): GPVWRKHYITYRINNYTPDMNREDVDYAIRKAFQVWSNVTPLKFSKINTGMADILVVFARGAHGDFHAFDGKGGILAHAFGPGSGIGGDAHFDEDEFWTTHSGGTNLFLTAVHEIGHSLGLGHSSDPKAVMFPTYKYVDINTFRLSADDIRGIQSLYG
T2 sequence (P08253 110-446 limits assumed): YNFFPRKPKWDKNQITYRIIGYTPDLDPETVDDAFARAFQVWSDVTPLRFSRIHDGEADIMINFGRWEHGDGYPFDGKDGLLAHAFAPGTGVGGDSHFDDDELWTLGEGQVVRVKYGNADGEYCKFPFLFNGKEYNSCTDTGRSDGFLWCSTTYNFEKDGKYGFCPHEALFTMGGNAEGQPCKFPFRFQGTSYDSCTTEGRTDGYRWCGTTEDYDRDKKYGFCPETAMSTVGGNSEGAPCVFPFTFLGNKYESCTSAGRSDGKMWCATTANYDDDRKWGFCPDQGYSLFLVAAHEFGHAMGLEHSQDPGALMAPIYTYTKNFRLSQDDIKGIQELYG

SMILES	IC50 ([1]; ne = no effect)	inhibition at 20 µM [1]	IC50 ([2]; ne = no effect)	inhibition at 20 µM [2]	IC50 [3]	inhibition at 20 µM [3]	MMP 7 inhibition IC50 ([4]; ne = no effect)	inhibition at 20 µM [4]	IC50 ([5]; ne = no effect)	inhibition at 20 µM [5]	IC50 ([6]; ne = no effect)	inhibition at 20 µM [6]	IC50 ([7]; ne = no effect)	inhibition at 20 µM [7]	MMP 12 inhibition IC50 [8]	inhibition at 20 µM [8]	IC50 [9]	inhibition at 20 µM [9]	IC50 ([10]; ne = no effect)	inhibition at 20 µM [10]	other results
O=C(NO)c1cc2ccc3c(Br)c(CCN4CCNCC4)[se]c3c2oc1=O [Compound I-3, 7-Bromo-N-hydroxy-2-oxo-8-(2-(piperazin-1-yl)ethyl)-2H-selenopheno[3,2-h]chromene-3-carboxamide hydrochloride]	6.66 ± 0.85 µM	94 ± 2%	1.13 ± 0.08 µM	100 ± 1%	> 20 µM	35 ± 5%	ne	20 ± 3%	1.61 ± 0.14 µM	100 ± 1%	1.06 ± 0.07 µM	99 ± 1%	0.96 µM	100 ± 1%	ne	0%	4.95 ± 1.05 µM	97 ± 4%	3.88 ± 0.99 µM	99 ± 4%	–
O=C(NO)c1cc2ccc3c(Br)c(CN4CCNCC4)[se]c3c2oc1=O [Compound I-2, 7-Bromo-N-hydroxy-2-oxo-8-(piperazin-1-ylmethyl)-2H-selenopheno[3,2-h]chromene-3-carboxamide hydrochloride]	5.93 ± 0.54 µM	94 ± 1%	1.57 ± 0.18 µM	98 ± 1%	> 20 µM	31 ± 7%	ne	20 ± 1%	1.64 ± 0.25 µM	100 ± 1%	1.48 ± 0.11 µM	100 ± 1%	1.37 ± 0.85 µM	99%	ne	5 ± 1%	6.27 ± 0.65 µM	98 ± 1%	4.35 ± 1.02 µM	98 ± 2%	MMP 1 inhibition IC50 ([1]; ne = no effect): 1.37+6.27 μM; MMP 2 inhibition IC50 ([2]; ne = no effect): 1.37+6.27 μM; MMP 8 inhibition IC50 ([5]; ne = no effect): 1.37+6.27 μM; MMP 9 inhibition IC50 ([6]; ne = no effect): 1.37+6.27 μM; MMP 10 inhibition IC50 ([7]; ne = no effect): 1.37+6.27 μM; MMP 13 inhibition IC50 [9]: 1.37+6.27 μM; MMP 14 inhibition IC50 ([10]; ne = no effect): 1.37+6.27 μM
O=C(NO)c1cc2ccc3c(Br)c(CN4CCCNCC4)[se]c3c2oc1=O [Compound I-4, 8-((1,4-Diazepan-1-yl)methyl)-7-bromo-N-hydroxy-2-oxo-2H-selenopheno[3,2-h]chromene-3-carboxamide hydrochloride]	5.21 ± 0.62 µM	99 ± 8%	1.86 ± 0.21 µM	99 ± 6%	> 20 µM	34 ± 8%	ne	16 ± 3%	1.86 ± 0.22 µM	100 ± 9%	1.92 ± 0.31 µM	99 ± 6%	1.71 ± 0.18 µM	99 ± 8%	ne	7 ± 3%	4.74 ± 0.95 µM	95 ± 8%	4.04 ± 0.97 µM	99 ± 7%	–
O=C(NO)c1cc2ccc3c(Br)c(CN4CCNCC4)[se]c3c2oc1=O (as salt: hydrochloride) [Compound I-2, 7-Bromo-N-hydroxy-2-oxo-8-(piperazin-1-ylmethyl)-2H-selenopheno[3,2-h]chromene-3-carboxamide hydrochloride]	–	–	–	–	–	–	–	–	–	–	–	–	–	–	–	–	–	–	–	–	melting point: > 200 °C
O=C(NO)c1cc2ccc3c(Br)c(CCN4CCNCC4)[se]c3c2oc1=O (as salt: hydrochloride) [Compound I-3, 7-Bromo-N-hydroxy-2-oxo-8-(2-(piperazin-1-yl)ethyl)-2H-selenopheno[3,2-h]chromene-3-carboxamide hydrochloride]	–	–	–	–	–	–	–	–	–	–	–	–	–	–	–	–	–	–	–	–	melting point: > 200 °C
CN1CCN(Cc2[se]c3c(ccc4cc(C(=O)NO)c(=O)oc43)c2Br)CC1 [Compound I-1, 7-Bromo-N-hydroxy-8-((4-methylpiperazin-1-yl)methyl)-2-oxo-2H-selenopheno[3,2-h]chromene-3-carboxamide hydrochloride]	> 20 µM	29 ± 2%	20 µM	51 ± 2%	> 20 µM	34 ± 2%	–	28 ± 2%	20 µM	56 ± 2%	> 20 µM	35 ± 5%	1.92 µM	≤ 97%	ne	0%	–	0%	18 ± 2 µM	58 ± 2%	IC50 ([4]; ne = no effect, read-out: MMP 7 inhibition IC50): > 20 µM; MMP 13 inhibition IC50 [9]: ne
COc1ccc(S(=O)(=O)N(CC(=O)NO)CC(C)C)cc1 [NNGH, N-isobutyl-N-(4-methoxyphenylsulfonyl)-glycylhydroxamic acid, reference compound]	–	–	–	–	–	–	–	–	–	–	–	–	–	–	–	–	–	–	–	–	MMP 1 inhibition ([1]; control inhibitor 1.3 μM): 100%; MMP 2 inhibition ([2]; control inhibitor 1.3 μM): 100%; MMP 3 inhibition ([3]; control inhibitor 1.3 μM): 100%; MMP 7 inhibition ([4]; control inhibitor 1.3 μM): 7.2%; MMP 8 inhibition ([5]; control inhibitor 1.3 μM): 100%; MMP 9 inhibition ([6]; control inhibitor 1.3 μM): 100%; MMP 10 inhibition ([7]; control inhibitor 1.3 μM): 100%; MMP 12 inhibition ([8]; control inhibitor 1.3 μM): 100%; MMP 13 inhibition ([9]; control inhibitor 1.3 μM): 100%; MMP 14 inhibition ([10]; control inhibitor 1.3 μM): 100%
CN1CCN(Cc2[se]c3c(ccc4cc(C(=O)NO)c(=O)oc43)c2Br)CC1 (as salt: hydrochloride) [Compound I-1, 7-Bromo-N-hydroxy-8-((4-methylpiperazin-1-yl)methyl)-2-oxo-2H-selenopheno[3,2-h]chromene-3-carboxamide hydrochloride]	–	–	–	–	–	–	–	–	–	–	–	–	–	–	–	–	–	–	–	–	melting point: > 200 °C
